Test results as given in ChEMBL document CHEMBL1123051, “In the search for new anticancer drugs. 13. Phosphonic and phosphinic analogues of ornithine” (1985).
Active and inactive are the calls of the source. The rule behind the calls is not given here.

What was measured:
Mus musculus [1] = test: Compound was tested against P388 Leukemia cells in mouse at the dose of 50 mg/kg ip, activity expressed as T/C; format: functional
[2] = target: T1, Ornithine decarboxylase (Rattus norvegicus) (UniProt P09057); test: Compound was tested for its inhibition against ornithine decarboxylase from rat liver at low concentration; NA means not active
T1 sequence (whole entry): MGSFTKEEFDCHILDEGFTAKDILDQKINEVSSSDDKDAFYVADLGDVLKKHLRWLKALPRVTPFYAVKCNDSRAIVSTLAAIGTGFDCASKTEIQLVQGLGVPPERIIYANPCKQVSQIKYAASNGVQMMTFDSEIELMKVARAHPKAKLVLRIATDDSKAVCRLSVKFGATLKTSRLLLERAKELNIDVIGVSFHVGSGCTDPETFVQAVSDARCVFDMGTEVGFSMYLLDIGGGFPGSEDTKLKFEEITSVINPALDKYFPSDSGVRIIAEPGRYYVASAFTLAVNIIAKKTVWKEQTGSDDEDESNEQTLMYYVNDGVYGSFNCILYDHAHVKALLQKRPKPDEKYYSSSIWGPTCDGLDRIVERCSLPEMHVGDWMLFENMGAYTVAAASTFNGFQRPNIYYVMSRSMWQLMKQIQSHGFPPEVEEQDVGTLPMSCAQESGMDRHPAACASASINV

Mus musculus [3] = test: Compound was tested against P388 Leukemia cells in mouse at the dose of 150 mg/kg ip, activity expressed as T/C; format: functional

Row | Structure (SMILES) | T/C (Mus musculus [1]) | Activity [2] | T/C (Mus musculus [3])
1 | CCP(=O)(O)C(C)(N)CCCN.Cl (stereo unspecified) | 98 | inactive | 98
2 | CCP(=O)(O)C(N)CCCN.Cl (stereo unspecified) | 100 | inactive | 100
